Results as given in patent publication US4471116A, “Substituted (10H-phenothiazin-10-L)-propyl-1-piperazines” (Hoffmann-La Roche Inc., priority 1982, dated 1984).
Structures can show the parent of a compound that is named as a salt. Where two headings read alike, the source gives them in different places.

How the values were obtained:
[1] = test system: Dopamine Turnover-Brain Caudate; assay: Dopamine Turnover-Brain, Caudate; type: in vivo; details: Rat, 1 mg/kg IP, 1 Hour Post-Drug
avoidance behavior = assay: Discrete Avoidance - Rats (avoidance block / escape block); type: in vivo, rat; details: for inhibition in vivo at 40 mg/kg / inhibition in vivo at 25 mg/kg: Rattus norvegicus
Source text: For example, by one procedure, trained rats are placed in experimental chambers equipped with a response lever, a steel grid floor for delivery of electric shock and a loudspeaker for presentation of auditory stimuli. […] The rats can terminate a trial at any point by depression of the response lever. A response during the initial fifteen-second warning tone ends the trial before shock delivery and is considered an avoidance response, while a response occurring during shock delivery is an escape response. Trials are presented every two minutes during a one-hour test session (30 trials per session). […] Compounds are administered to a minimum of three to four rats at each dose level over a range of doses. Rats receive vehicle alone, during control sessions prior to drug administration. Each rat is tested daily or weekly, after a single drug administration, until avoidance behavior returns to pre-drug baseline levels. The session is divided into three consecutive twenty minute (ten trial) segments. Response counts are summed over all subjects at a given dose within each segment. […] This number is expressed as a percentage of the total trials within the segment. […] The lowest dose which produced a 20% block of escape responding (EBD 20) is read from a graphic dose-effect plot. In obtaining these values, percent effect is plotted against the log dose.

Continuous Avoidance = Continuous Avoidance (Squirrel Monkeys); type: in vivo, squirrel monkey; details: Primates; Squirrel Monkey, PO, 1 Hour Post-Drug; read-out: Continuous Avoidance MED Shocks
[2] = test system: Amphetamine Induced Rotation; assay: Amphetamine Induced Rotation antagonism (S. Nigra Lesioned Rats) / Rotation Antagonism; type: in vivo, rat; details: Rat, PO, 1 Hour Post-Drug
[3] = test system: Apomorphine Induced Emesis; assay: Apomorphine Induced Emesis antagonism (Dogs); type: in vivo, dog; details: Canis lupus familiaris; Dog, SC, 1 Hour Post-Drug; read-out: Anti-Apomorphine Emesis ED50
[4] = test system: Confinement Motor Activity; assay: Confinement Motor Activity; type: in vivo; details: Rat, PO, 1 Hour Post-Drug; read-out: Confinement Motor Activity DD50
[5] = test system: Dopamine Turnover-Brain Limbic and Remainder; assay: Dopamine Turnover-Brain, Limbic and Remainder; type: in vivo; details: Rat, 1 mg/kg IP, 1 Hour Post-Drug
[6] = 1 h, 40 mg/kg po, 60 min. post-drug, read-out: Percentage Block of Avoidance, 60 min. post-drug
[7] = 40 mg/kg po, 24 hrs. post-drug, read-out: Percentage Block of Avoidance, 24 hrs. post-drug
[8] = 40 mg/kg po, at the indicated duration, read-out: Avoidance block at Duration of Sig. Activity (AB)
[9] = 40 mg/kg po, at time of peak effect, read-out: Avoidance block at Time of Peak Effect (AB)

SMILES	Duration of Sig. Activity (avoidance behavior; 40 mg/kg po)	Time of Peak Effect (avoidance behavior; 40 mg/kg po) [days]	inhibition in vivo at 40 mg/kg (avoidance behavior; [6]) [%]	inhibition in vivo at 40 mg/kg (avoidance behavior; [7]) [%]	inhibition in vivo at 40 mg/kg (avoidance behavior; [8]) [%]	inhibition in vivo at 40 mg/kg (avoidance behavior; [9]) [%]	also measured
O=C(CCCN1CCC(O)(c2ccc(Cl)cc2)CC1)c1ccc(F)cc1 [Haloperidol, haloperidol, reference compound]							Dopamine Turnover-Brain, Caudate [1]: Signif. .uparw.; ED50 (avoidance behavior; Rat, PO, 1 Hour Post-Drug, read-out: Discrete Avoidance ABD50): 0.35 mg/kg; minimal effective dose (Continuous Avoidance): 0.28 mg/kg; ED50 [2]: 0.35 mg/kg; ED50 [3]: 0.02 mg/kg; ED50 [4]: 0.4 mg/kg; Dopamine Turnover-Brain, Limbic and Remainder [5]: Signif. .uparw.
CC(C)NC[C@@H](O)COc1ccc(OCCN2CCN(CCCN3c4ccccc4Sc4ccc(Cl)cc43)CC2)cc1.Cl.Cl.Cl [(R)-1-(1-methylethylamino)-3-[4-[2-[4-[3-(2-chloro-10H-phenothiazin-10-yl)propyl]piperazin-1-yl]ethoxy]phenoxy]-2-propanol, trihydrochloride]	3 weeks	10	20	27	27	37	
CN(C)CCCOc1ccc(OCCN2CCN(CCCN3c4ccccc4Sc4ccc(Cl)cc43)CC2)cc1.Cl.Cl.Cl [3-[[4-[2-[4-[3-(2-chloro-10H-phenothiazin-10-yl)propyl]-1-piperazinyl]ethoxy]phenyl]oxy]-N,N-dimethylpropanamine trihydrochloride]	> 6 weeks	1	50	100	25	100	
CC(C)NCCCCCOc1ccc(OCCN2CCN(CCCN3c4ccccc4Sc4ccc(Cl)cc43)CC2)cc1 [1-[3-(2-chloro-10H--phenothiazin-10-yl)propyl]-4-[2-[4-[5-(1-methylethyl)aminopentoxy]phenoxy]ethyl]piperazine trimaleate]	2 weeks	1	10	97	23	97	
CC(C)NC[C@H](O)COc1ccc(OCCN2CCN(CCCN3c4ccccc4Sc4ccc(C(F)(F)F)cc43)CC2)cc1 [(S)-1-(1-methylethylamino)-3-[4-[2-[4-[3-(2-trifluoromethyl)-10H-phenothiazin-10-yl)propyl]piperazin-1-yl]ethoxy]phenoxy]-2-propanol trihydrochloride]							Duration of Sig. Activity (avoidance behavior; 25 mg/kg po): 61/2; Time of Peak Effect (avoidance behavior; 25 mg/kg po): 3 to 10 days; inhibition in vivo at 25 mg/kg (avoidance behavior; 1 h, 25 mg/kg po, 60 min. post-drug, read-out: Percentage Block of Avoidance, 60 min. post-drug): 33%; inhibition in vivo at 25 mg/kg (avoidance behavior; 25 mg/kg po, 24 hrs. post-drug, read-out: Percentage Block of Avoidance, 24 hrs. post-drug): 57%; inhibition in vivo at 25 mg/kg (avoidance behavior; 25 mg/kg po, at the indicated duration, read-out: Avoidance block at Duration of Sig. Activity (AB)): 37%; inhibition in vivo at 25 mg/kg (avoidance behavior; 25 mg/kg po, at time of peak effect, read-out: Avoidance block at Time of Peak Effect (AB)): 77 to 87%
CNCCCOc1ccc(OCCN2CCN(CCCN3c4ccccc4Sc4ccc(Cl)cc43)CC2)cc1.Cl.Cl.Cl [3-[[4-[2-[4-[3-(2-chloro-10H-phenothiazin-10-yl)propyl]-1-piperazinyl]ethoxy]phenyl]oxy]-N-methylpropanamine trihydrochloride]	5 weeks	1	65	100	25	100	
CC(C)NCCCOc1ccc(OCCN2CCN(CCCN3c4ccccc4Sc4ccc(Cl)cc43)CC2)cc1 [1-[3-(2-chloro-10H-phenothiazin-10-yl)propyl]-4-2-[4-[3-(1-methylethyl)aminopropoxy]phenoxy]ethyl]piperazine trihydrochloride]	5 weeks	1	10	97	50	97	
CC(C)NCCCCc1ccc(OCCN2CCN(CCCN3c4ccccc4Sc4ccc(Cl)cc43)CC2)cc1 [1-[3-(2-chloro-10H-phenothiazin-10-yl)propyl]-4-[2-[4-[4-(1-methylethyl)aminobutyl]phenoxy]ethyl]piperazine]	51/2	1	17	100	55	100	
CC(C)NCCc1ccc(OCCN2CCN(CCCN3c4ccccc4Sc4ccc(Cl)cc43)CC2)cc1.O=C(O)/C=C\C(=O)O.O=C(O)/C=C\C(=O)O.O=C(O)/C=C\C(=O)O [1-[3-(2-chloro-10H-phenothiazin-10-yl)propyl]-4-[2-[4-[2-(1-methylethyl)aminoethyl]phenoxy]ethyl]piperazine trimaleate]	5 weeks	1	10	100	80	100	
CC(C)NCCOc1ccc(OCCN2CCN(CCCN3c4ccccc4Sc4ccc(Cl)cc43)CC2)cc1.Cl.Cl.Cl [1-[3-(2-chloro-10H-phenothiazin-10-yl)propyl]-4-[2-[4-[2-(1-methylethyl)aminoethoxy]phenoxy]ethyl]piperazine trihydrochloride]	8 weeks	1	10	100	37	100	
CC(C)NCCCCOc1ccc(OCCN2CCN(CCCN3c4ccccc4Sc4ccc(Cl)cc43)CC2)cc1.Cl.Cl.Cl [1-[3-(2-chloro-10H-phenothiazin-10-yl)propyl]-4-[2-[4-[4-(1-methylethyl)aminobutoxy]phenoxy]ethyl]piperazine trihydrochloride]	5 weeks	3 to 10	20	33	30	97 to 100	
Cl.Cl.Cl.NCCCOc1ccc(OCCN2CCN(CCCN3c4ccccc4Sc4ccc(Cl)cc43)CC2)cc1 [3-[[4-[2-[4-[3-(2-chloro-10H-phenothiazin-10-yl)propyl]-1-piperazinyl]ethoxy]phenyl]oxy]propanamine trihydrochloride]	51/2	3	40	73	27	90	
CC(C)NCCCc1ccc(OCCN2CCN(CCCN3c4ccccc4Sc4ccc(Cl)cc43)CC2)cc1.Cl.Cl.Cl [1-[3-(2-chloro-10H-phenothiazin-10-yl)propyl]-4-[2-[4-[3-(1-methylethyl)aminopropyl]phenoxy]ethyl]piperazine trihydrochloride]	5 weeks	1	45	100	55	100	
CSc1ccc2c(c1)N(CCCN1CCN(CCOc3ccc(OCCCCCNC(C)C)cc3)CC1)c1ccccc1S2.O=C(O)/C=C\C(=O)O.O=C(O)/C=C\C(=O)O.O=C(O)/C=C\C(=O)O [1-[3-(2-methylthio-10H-phenothiazin-10-yl)propyl]-4-[2-[4-[5-(1-methylethyl)aminopentoxy]phenoxy]ethyl]piperazine trimaleate]	3 days	0.0417	60	45	35	60	
CC(C)NCCCCCCOc1ccc(OCCN2CCN(CCCN3c4ccccc4Sc4ccc(Cl)cc43)CC2)cc1 [1-[3-(2-chloro-10H-phenothiazin-10-yl)]-4-[2-[4-[6-(1-methylethyl)aminohexyloxy]phenoxy]ethyl]piperazine trihydrochloride]	1 weeks	1	23	40	30	40	
